# Data: patent US6358885B1, “Substituted phenylheterocyclic herbicides” (Mississippi State University, priority 1992, dated 2002)
# Experiments:
# [1] = test system: bedstraw; test: Test B preemergence/postemergence greenhouse plant response rating 0 to 10; type: in vivo, Galium aparine; conditions: 0 to 10 scale
# Method in brief: (§1)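 Test chemicals, dissolved in a non-phytotoxic solvent, were applied to soil at planting and, at the same time, over foliage of seedlings at the one to four leaf stage.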
# [2] = test system: chickweed; test: as above; type: in vivo, Stellaria media; conditions: 0 to 10 scale
# Method in brief: as §1
# [3] = test system: corn; test: as above; type: in vivo, Zea mays; conditions: 0 to 10 scale
# Method in brief: as §1
# [4] = test system: sugar beet; test: as above; type: in vivo, Beta vulgaris; conditions: 0 to 10 scale
# Method in brief: as §1
# [5] = test system: wild buckwheat; test: as above; type: in vivo, Polygonum convolvulus; conditions: 0 to 10 scale
# Method in brief: as §1
# [6] = test system: bedstraw; test: Test C preemergence/postemergence greenhouse plant response rating 0 to 100; type: in vivo, Galium aparine; conditions: for Plant response rating, Bedstraw: 62 g/ha, 0 to 100 scale
# Method in brief: (§2)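 Compounds in non-phytotoxic solvent applied preemergence to sandy loam one day after planting, postemergence at the 1–4 leaf stage, or to ~2.5 cm floodwater over silt loam.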
# [7] = test system: corn; test: as above; type: in vivo, Zea mays; conditions: for Plant response rating, Corn: 62 g/ha, 0 to 100 scale
# Method in brief: as §2
# [8] = test system: cotton; test: as above; type: in vivo, Gossypium hirsutum; conditions: for Plant response rating, Cotton: 62 g/ha, 0 to 100 scale
# Method in brief: as §2
# [9] = test system: downy brome; test: as above; type: in vivo, Bromus tectorum; conditions: for Plant response rating Downy Brome: 62 g/ha, 0 to 100 scale
# Method in brief: as §2
# [10] = test system: giant foxtail; test: as above; type: in vivo, Setaria faberii; conditions: for Plant response rating, Giant foxtail: 62 g/ha, 0 to 100 scale
# Method in brief: as §2
# [11] = test system: morningglory; test: as above; type: in vivo, Ipomoea hederacea; conditions: for Plant response rating, Morningglory: 62 g/ha, 0 to 100 scale
# Method in brief: as §2
# [12] = test system: sorghum; test: as above; type: in vivo, Sorghum bicolor
# Method in brief: as §2
# [13] = test system: velvetleaf; test: as above; type: in vivo, Abutilon theophrasti
# Method in brief: as §2
# [14] = test system: wheat; test: as above; type: in vivo, Triticum aestivum
# Method in brief: as §2
# [15] = test system: wild oat; test: as above; type: in vivo, Avena fatua
# Method in brief: as §2
# [16] = test system: duck salad; test: Test C flood test plant response rating 0 to 100; type: in vivo, Heteranthera limosa
# Method in brief: as §2
# [17] = test system: barnyardgrass; test: Test C flood test plant response rating 0 to 100; type: in vivo, Echinochloa crus-galli
# Method in brief: as §2
# [18] = POSTEMERGENCE, 62 g/ha, 0 to 100 scale
# [19] = POSTEMERGENCE section, flood test, Rate 1 g/ha
# [20] = POSTEMERGENCE section, flood test, Rate 4 g/ha
# [21] = Rate 16 g/ha, under POSTEMERGENCE head (flood test species)
# [22] = flood test species listed under POSTEMERGENCE, 62 g/ha, 0 to 100 scale
structure (smiles),measurement,setting,value
CCN1C(=O)COc2cc(F)c(-c3nn4c(c3Cl)CCCC4)cc21 [Compound 54],"Plant response rating, Bedstraw","[1]; POSTEMERGENCE, Rate 10 g/ha",9
same,"Plant response rating, Bedstraw","[1]; POSTEMERGENCE, Rate 50 g/ha",9
same,"Plant response rating, Bedstraw","[1]; PREEMERGENCE, Rate 10 g/ha",8
same,"Plant response rating, Bedstraw","[1]; PREEMERGENCE, Rate 50 g/ha",9
same,"Plant response rating, Chickweed","[2]; POSTEMERGENCE, Rate 50 g/ha",10
same,"Plant response rating, Chickweed","[2]; PREEMERGENCE, Rate 10 g/ha",9
same,"Plant response rating, Chickweed","[2]; PREEMERGENCE, Rate 50 g/ha",10
same,"Plant response rating, Corn","[3]; POSTEMERGENCE, Rate 10 g/ha",3
same,"Plant response rating, Corn","[3]; POSTEMERGENCE, Rate 50 g/ha",3
same,"Plant response rating, Corn","[3]; PREEMERGENCE, Rate 50 g/ha",0
same,"Plant response rating, Sugar beet","[4]; POSTEMERGENCE, Rate 10 g/ha",10
same,"Plant response rating, Sugar beet","[4]; POSTEMERGENCE, Rate 50 g/ha",10
same,"Plant response rating, Sugar beet","[4]; PREEMERGENCE, Rate 50 g/ha",9
same,"Plant response rating, Wild buckwheat","[5]; POSTEMERGENCE, Rate 10 g/ha",10
same,"Plant response rating, Wild buckwheat","[5]; POSTEMERGENCE, Rate 50 g/ha",10
same,"Plant response rating, Wild buckwheat","[5]; PREEMERGENCE, Rate 50 g/ha",10
same,"Plant response rating, Bedstraw",[6]; POSTEMERGENCE,100
same,"Plant response rating (0 to 100), Bedstraw","[6]; POSTEMERGENCE, Rate 1 g/ha",65
same,"Plant response rating (0 to 100), Bedstraw","[6]; POSTEMERGENCE, Rate 4 g/ha",85
same,"Plant response rating, Bedstraw",[6]; PREEMERGENCE,50
same,"Plant response rating (0 to 100), Bedstraw","[6]; PREEMERGENCE, Rate 1 g/ha",0
same,"Plant response rating (0 to 100), Bedstraw","[6]; PREEMERGENCE, Rate 4 g/ha",0
same,"Plant response rating (0 to 100), Bedstraw","[6]; Rate 16 g/ha, POSTEMERGENCE",100
same,"Plant response rating (0 to 100), Bedstraw","[6]; Rate 16 g/ha, PREEMERGENCE",30
same,"Plant response rating, Corn",[7]; POSTEMERGENCE,50
same,"Plant response rating (0 to 100), Corn","[7]; POSTEMERGENCE, Rate 1 g/ha",30
same,"Plant response rating (0 to 100), Corn","[7]; POSTEMERGENCE, Rate 4 g/ha",30
same,"Plant response rating, Corn",[7]; PREEMERGENCE,40
same,"Plant response rating (0 to 100), Corn","[7]; PREEMERGENCE, Rate 1 g/ha",0
same,"Plant response rating (0 to 100), Corn","[7]; PREEMERGENCE, Rate 4 g/ha",0
same,"Plant response rating (0 to 100), Corn","[7]; Rate 16 g/ha, POSTEMERGENCE",40
same,"Plant response rating (0 to 100), Corn","[7]; Rate 16 g/ha, PREEMERGENCE",0
same,"Plant response rating, Cotton",[8]; POSTEMERGENCE,100
same,"Plant response rating (0 to 100), Cotton","[8]; POSTEMERGENCE, Rate 1 g/ha",70
same,"Plant response rating (0 to 100), Cotton","[8]; POSTEMERGENCE, Rate 4 g/ha",95
same,"Plant response rating, Cotton",[8]; PREEMERGENCE,40
same,"Plant response rating (0 to 100), Cotton","[8]; PREEMERGENCE, Rate 1 g/ha",0
same,"Plant response rating (0 to 100), Cotton","[8]; PREEMERGENCE, Rate 4 g/ha",0
same,"Plant response rating (0 to 100), Cotton","[8]; Rate 16 g/ha, POSTEMERGENCE",100
same,"Plant response rating (0 to 100), Cotton","[8]; Rate 16 g/ha, PREEMERGENCE",0
same,Plant response rating Downy Brome,[9]; POSTEMERGENCE,60
same,"Plant response rating (0 to 100), Downy Brome","[9]; POSTEMERGENCE, Rate 1 g/ha",10
same,"Plant response rating (0 to 100), Downy Brome","[9]; POSTEMERGENCE, Rate 4 g/ha",30
same,Plant response rating Downy Brome,[9]; PREEMERGENCE,30
same,"Plant response rating (0 to 100), Downy Brome","[9]; PREEMERGENCE, Rate 1 g/ha",0
same,"Plant response rating (0 to 100), Downy Brome","[9]; PREEMERGENCE, Rate 4 g/ha",0
same,"Plant response rating (0 to 100), Downy Brome","[9]; Rate 16 g/ha, POSTEMERGENCE",50
same,"Plant response rating (0 to 100), Downy Brome","[9]; Rate 16 g/ha, PREEMERGENCE",20
same,"Plant response rating, Giant foxtail",[10]; POSTEMERGENCE,70
same,"Plant response rating (0 to 100), Giant foxtail","[10]; POSTEMERGENCE, Rate 1 g/ha",10
same,"Plant response rating (0 to 100), Giant foxtail","[10]; POSTEMERGENCE, Rate 4 g/ha",20
same,"Plant response rating, Giant foxtail",[10]; PREEMERGENCE,60
same,"Plant response rating (0 to 100), Giant foxtail","[10]; PREEMERGENCE, Rate 1 g/ha",0
same,"Plant response rating (0 to 100), Giant foxtail","[10]; PREEMERGENCE, Rate 4 g/ha",0
same,"Plant response rating (0 to 100), Giant foxtail","[10]; Rate 16 g/ha, POSTEMERGENCE",40
same,"Plant response rating (0 to 100), Giant foxtail","[10]; Rate 16 g/ha, PREEMERGENCE",0
same,"Plant response rating, Morningglory",[11]; POSTEMERGENCE,100
same,"Plant response rating (0 to 100), Morningglory","[11]; POSTEMERGENCE, Rate 1 g/ha",60
same,"Plant response rating (0 to 100), Morningglory","[11]; POSTEMERGENCE, Rate 4 g/ha",100
same,"Plant response rating, Morningglory",[11]; PREEMERGENCE,20
same,"Plant response rating (0 to 100), Morningglory","[11]; PREEMERGENCE, Rate 1 g/ha",0
same,"Plant response rating (0 to 100), Morningglory","[11]; PREEMERGENCE, Rate 4 g/ha",0
same,"Plant response rating (0 to 100), Morningglory","[11]; Rate 16 g/ha, POSTEMERGENCE",100
same,"Plant response rating (0 to 100), Morningglory","[11]; Rate 16 g/ha, PREEMERGENCE",0
same,"Plant response rating, Sorghum",[12]; [18],60
same,"Plant response rating (0 to 100), Sorghum","[12]; POSTEMERGENCE, Rate 1 g/ha",20
same,"Plant response rating (0 to 100), Sorghum","[12]; POSTEMERGENCE, Rate 4 g/ha",40
same,"Plant response rating (0 to 100), Sorghum","[12]; PREEMERGENCE, Rate 1 g/ha",0
same,"Plant response rating (0 to 100), Sorghum","[12]; PREEMERGENCE, Rate 4 g/ha",0
same,"Plant response rating (0 to 100), Sorghum","[12]; Rate 16 g/ha, POSTEMERGENCE",50
same,"Plant response rating (0 to 100), Sorghum","[12]; Rate 16 g/ha, PREEMERGENCE",0
same,"Plant response rating, Velvetleaf",[13]; [18],100
same,"Plant response rating (0 to 100), Velvetleaf","[13]; POSTEMERGENCE, Rate 1 g/ha",70
same,"Plant response rating (0 to 100), Velvetleaf","[13]; POSTEMERGENCE, Rate 4 g/ha",100
same,"Plant response rating (0 to 100), Velvetleaf","[13]; PREEMERGENCE, Rate 1 g/ha",0
same,"Plant response rating (0 to 100), Velvetleaf","[13]; PREEMERGENCE, Rate 4 g/ha",0
same,"Plant response rating (0 to 100), Velvetleaf","[13]; Rate 16 g/ha, POSTEMERGENCE",100
same,"Plant response rating (0 to 100), Velvetleaf","[13]; Rate 16 g/ha, PREEMERGENCE",80
same,"Plant response rating, Wheat",[14]; [18],60
same,"Plant response rating (0 to 100), Wheat","[14]; POSTEMERGENCE, Rate 1 g/ha",20
same,"Plant response rating (0 to 100), Wheat","[14]; POSTEMERGENCE, Rate 4 g/ha",40
same,"Plant response rating (0 to 100), Wheat","[14]; PREEMERGENCE, Rate 1 g/ha",0
same,"Plant response rating (0 to 100), Wheat","[14]; PREEMERGENCE, Rate 4 g/ha",0
same,"Plant response rating (0 to 100), Wheat","[14]; Rate 16 g/ha, POSTEMERGENCE",60
same,"Plant response rating (0 to 100), Wheat","[14]; Rate 16 g/ha, PREEMERGENCE",10
same,"Plant response rating, Wild oat",[15]; [18],60
same,"Plant response rating (0 to 100), Wild oat","[15]; POSTEMERGENCE, Rate 1 g/ha",20
same,"Plant response rating (0 to 100), Wild oat","[15]; POSTEMERGENCE, Rate 4 g/ha",30
same,"Plant response rating (0 to 100), Wild oat","[15]; PREEMERGENCE, Rate 1 g/ha",0
same,"Plant response rating (0 to 100), Wild oat","[15]; PREEMERGENCE, Rate 4 g/ha",0
same,"Plant response rating (0 to 100), Wild oat","[15]; Rate 16 g/ha, POSTEMERGENCE",40
same,"Plant response rating (0 to 100), Wild oat","[15]; Rate 16 g/ha, PREEMERGENCE",10
same,"Plant response rating (0 to 100), Duck salad",[16]; [19],0
same,"Plant response rating (0 to 100), Duck salad",[16]; [20],0
same,"Plant response rating (0 to 100), Duck salad",[16]; [21],35
same,Plant response rating Duck salad,[16]; [22],100
same,"Plant response rating (0 to 100), Barnyardgrass 2",[17]; [19],0
same,"Plant response rating (0 to 100), Barnyardgrass 2",[17]; [20],10
same,"Plant response rating (0 to 100), Barnyardgrass 2",[17]; [21],95
same,Plant response rating Barnyardgrass 2,[17]; [22],100
